In patent US7960560B2, “1-(biphenyl-4-ylmethyl)imidazolidine-2,4-dione” (N.V. Organon, priority 2008, dated 2011):

Key:
[1] = test system: mechanical allodynia induced by spinal nerve ligation in rats; test: The rat (Chung) model of neuropathic pain; format: in vivo; details: for Withdrawal threshold (g) at peak effect: male Wistar rats, von Frey, vehicle 2.7 ± 0.2
Experimental: The Rat (Chung) Model of Neuropathic Pain
In this model, mechanical allodynia is induced by tight ligation of the left L5 spinal nerve.
Male Wistar rats (228-301 g body weight at time of surgery) were employed in the study. Rats were placed on an elevated (˜40 cm) mesh floor in perspex boxes and the rats' withdrawal threshold to a mechanical stimulus (calibrated von Frey filaments) was measured using filaments of increasing force (2.6-167 mN). The von Frey filaments were applied to the plantar surface of the paw and threshold response determined using the up and down method. A positive response was noted if the paw was sharply withdrawn. A cut-off of 15 g was selected as the upper limit for testing. Following baseline measurements each animal was anaesthetised and the L5 spinal nerve tightly ligated. The animals were allowed to recover from the surgery for a period of at least three days. On the day of drug administration the paw withdrawal thresholds were re-measured (0 min). Immediately after this reading, the rats were dosed orally with vehicle or test compound and readings measured at various time points after compound administration.
Data were expressed as mean±s.e.m. Statistical analysis was performed using the Kruskal-Wallis one-way analysis of variance, a non-parametric statistical test. Each of the treatment groups were then compared against the vehicle group, using the non-parametric Dunn's test.

[2] = test system: mechanical hyperalgesia induced by complete Freund's adjuvant in rats; test: Mechanical hyperalgesia in the rat (CFA model of inflammatory pain); format: in vivo; details: for % Attenuation of hyperalgesia (peak effect): male Wistar rats, 24 h after CFA, reading 3 h post drug, vehicle −0.6 ± 11
Experimental: Mechanical Hyperalgesia in the Rat
In this rat model of inflammatory pain, inflammation is induced by subcutaneous injection of complete Freund's adjuvant (CFA) into the hind paw. The associated mechanical hyperalgesia is quantified by measuring the reduction in paw withdrawal threshold (PWT) to a mechanical compression of the paw.
Experiments were in male Wistar rats weighing (141-175 g). In brief, the rats' paw withdrawal threshold (PWT) to a mechanical compression of the hind paw was measured (baseline reading) using a Randall-Sellito apparatus (Ugo Basile). A cut-off of 20 g was employed to minimise tissue damage to the paw. The animals were then lightly anaesthetised with isoflurane (1-3%) and CFA (0.1 ml.paw^−1) injected subcutaneously (s.c.) into the plantar surface of the left hind paw. The animals were then returned to their home cage and left for the inflammation to develop.
Twenty four h after CFA injection, PWT's were re-measured (0 min) and immediately after this reading, rats were dosed orally with either vehicle or compound 3K (4.5-45 μmol/kg p.o.) Readings were then made at 3 h post drug administration.
Data were plotted as mean±s.e.m. and compared between groups using the Kruskal-Wallis one-way analysis of variance, a non-parametric statistical test.
The percent attenuation of mechanical hyperalgesia is calculated as follows.

For `O=C1CN(Cc2ccc(-c3ccccc3CN3CCOCC3)cc2)C(=O)N1CC1CC1` [Example 3K, 3-Cyclopropylmethyl-1-(2′-(morpholin-4-ylmethyl)biphenyl-4-ylmethyl)imidazolidine-2,4-dione], the “Withdrawal threshold (g) at peak effect” value ([1]; 4.5 μmol/kg p.o.) was 5.8 ± 1.1 g, the “Withdrawal threshold (g) at peak effect” value ([1]; 15 μmol/kg p.o., p ≦ 0.05) was 6.4 ± 1.0 g and the “Withdrawal threshold (g) at peak effect” value ([1]; 45 μmol/kg p.o., p ≦ 0.05) was 7.4 ± 1.3 g. For the same compound, the “Effect on mechanical allodynia” value ([1]; 4.5-45 μmol/kg p.o., at 120 and 180 min post drug administration) was “attenuated mechanical allodynia in a dose-dependent fashion”, the “Minimum effective dose (MED)” value ([1]; p.o., mechanical allodynia, rat) was 15 µmol/kg and the “% Attenuation of hyperalgesia (peak effect)” value ([2]; 4.5 μmol/kg p.o.) was 36 ± 11%. The “% Attenuation of hyperalgesia (peak effect)” value ([2]; 45 μmol/kg p.o., p ≦ 0.001) was 100 ± 25 %, the “Effect on mechanical hyperalgesia induced by CFA” value ([2]; 4.5-45 μmol/kg oral) was “reversed mechanical hyperalgesia induced by CFA in a dose-dependent fashion” and the MED ([2]; p.o., CFA-induced mechanical hyperalgesia, rat) was 4.4 µmol/kg.
